The text below walks through data of PubChem BioAssay (NCI).

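Grown in 96-well plates, cells were treated for 48 hours with each compound at five concentrations. Insufficient inhibition: endpoint recorded as highest concentration tested. TGI: concentration producing complete growth inhibition.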 Bounds are passed on as bounds.

Assay in all cases: DTP human tumour cell line panel, 48 h
Assay [1] concerns A549 NSCLC.
Assay [2] has as its system BT-549 breast.
Assay [3] deals with CAKI-1 renal.
Assay [4] has as its system CCRF-CEM leukemia.
The test system of assay [5] is COLO 205 colon.
Assay [6] deals with EKVX NSCLC.
The test system of assay [7] is HCT-15 colon.
Assay [8] deals with KM12 colon.
Assay [9] relates to M14 melanoma.
Assay [10] relates to MCF7 breast.
The test system of assay [11] is MDA-MB-231 breast.
Assay [12] has as its system NCI-H23 lung.
Assay [13] has as its system NCI-H460 lung.
Assay [14] deals with OVCAR-3 ovarian.
In assay [15] the test system is OVCAR-5 ovarian.
Assay [16] has as its system SF-295 CNS.
For assay [17], the system named is SK-MEL-2 melanoma.
Assay [18] has as its system SK-MEL-5 melanoma.
Assay [19] relates to UO-31 renal.
For assay [20], the system named is RPMI-8226 leukemia.

For orientation: TGI means the concentration at which net growth stops. High values mean less potent growth arrest, low ones more potent growth arrest. As for `CNc1nc(=O)c(C#N)c(-c2ccc(C)cc2)s1`, the TGI in assay [1], in assay [2], in [3], in assay [4], in assay [5] and in assay [6] was greater than 100 µM each time. Moreover, the TGI in assay [7], in assay [8], in assay [9], in [10], in assay [11] and in assay [12] was greater than 100 µM throughout. For the same compound, the TGI in [13], in assay [14], in assay [15], in assay [16], in assay [17] and in assay [18] was greater than 100 µM throughout. The same compound registered a TGI in assay [19] greater than 100 µM.
Consider `N#CCCCCC12C3C(=O)N(c4ccccc4)C(=O)C3ON1O[C@@H]1C(=O)N(c3ccccc3)C(=O)[C@@H]12` (stereo partly drawn), for which the TGI in assay [1], in assay [2], in assay [3], in [4], in [5] and in assay [6] was greater than 100 µM each time. Further, the TGI in assay [7], in [8], in assay [9], in assay [10], in assay [11] and in assay [12] was greater than 100 µM throughout. The concentration for total growth inhibition (TGI) in assay [13], in assay [14], in [15], in [16], in assay [18] and in assay [19] was greater than 100 µM throughout.
`Cc1cc(O)c(/C=N/C(=O)NN)c(=O)o1`: the TGI in [1], in assay [2], in assay [3], in assay [4], in [5] and in assay [6] was greater than 100 µM in each case. Also, the TGI in assay [7], in [8], in [9], in [10], in [11] and in [12] was greater than 100 µM throughout. Besides, the TGI in [13], in assay [14], in assay [15], in assay [16], in assay [17] and in assay [18] was greater than 100 µM in each case. In assay [19], the concentration for total growth inhibition (TGI) is greater than 100 µM.
On to `FC(F)(F)c1nc2cc(SSc3cc4nc(C(F)(F)F)[nH]c4cc3Cl)c(Cl)cc2[nH]1`, for which the TGI in assay [1], in assay [2], in [3], in [5], in assay [6] and in [7] was greater than 100 µM each time. Further, the TGI in assay [9], in assay [10], in assay [11], in assay [12], in assay [13] and in assay [14] was greater than 100 µM each time. Moreover, the TGI in assay [15], in [20], in [16], in assay [17] and in [18] was greater than 100 µM in each case.
For `CCC(C)N1CN(c2ccccc2)C2(CCN(CCCC(=O)c3ccc(F)cc3)CC2)C1=O` (stereo not drawn), the TGI is 20.4 µM in [1]; 26 µM in assay [2]; 26.8 µM in assay [3]; greater than 100 µM in assay [4]; 0.348 µM in [5]; 36.4 µM in assay [6]. Besides, the TGI came to 17.9 µM in assay [7]; 27.4 µM in [9]; 11.5 µM in assay [10]; 23.1 µM in [11]; 14.1 µM in assay [12]; 24.8 µM in assay [14]. The TGI in assay [15] is 8.12 µM; in [20], 31.5 µM; in [16] it was 15.8 µM; in assay [17] it was 28.7 µM; in assay [18] it was 9.61 µM; in assay [19], 15.6 µM.
For the compound `CC1(C)CC(=O)C2=C(C1)N(c1ccccc1)C1(O)C=CC(=O)C3=C(O)c4ccccc4C(=O)C321` (stereo not drawn), the TGI in [1] was greater than 100 µM; in assay [2] it was 67.9 µM; in assay [3], 86 µM; in assay [4], greater than 100 µM; in assay [5], greater than 100 µM; in assay [6] it was greater than 100 µM. For the same compound, the total growth inhibition concentration (TGI) is greater than 100 µM in assay [7]; 86.3 µM in assay [8]; greater than 100 µM in assay [9]; greater than 100 µM in [10]; greater than 100 µM in assay [11]; 84 µM in assay [12]. The TGI in [13] was 83.9 µM; in assay [14], greater than 100 µM; in [15], greater than 100 µM; in assay [20], greater than 100 µM; in [16], greater than 100 µM; in assay [17] it was 60.9 µM. In addition, in assay [19], the TGI amounted to 47 µM.
With `CC1(C)C(C(=O)OC(C#N)c2cccc(OCC(=O)OCc3ccccc3)c2)C1(C)C` (stereo not drawn), the TGI was greater than 100 µM in assay [1]; greater than 100 µM in [2]; greater than 100 µM in [3]; 76.5 µM in assay [4]; greater than 100 µM in [5]; greater than 100 µM in assay [6]. Besides, the TGI in assay [7], in assay [8], in [9], in [10], in [11] and in [12] was greater than 100 µM in each case. Also, the TGI in [13], in assay [14], in assay [15], in [16], in assay [17] and in assay [18] was greater than 100 µM each time. The TGI in assay [19] was greater than 100 µM.
With `COC(=O)C(Cc1ccccc1)NC(=O)C(CCCN=C(N)N)NC(=O)OCc1ccccc1` (stereo not drawn), the total growth inhibition concentration (TGI) in assay [1], in assay [2], in [3], in assay [4], in assay [5] and in assay [6] was greater than 100 µM throughout. In addition, the TGI in assay [7], in assay [8], in [9], in assay [10], in [11] and in assay [12] was greater than 100 µM each time. Besides, the TGI in [13], in [14], in assay [15], in assay [20], in assay [16] and in assay [18] was greater than 100 µM throughout. The total growth inhibition concentration (TGI) in assay [19] was greater than 100 µM.
Take `CC[C@@]1(O)C(=O)OCc2c1cc1n(c2=O)Cc2c-1nc1ccccc1c2/C=N\NC(=O)C(N)=O`: the TGI in assay [1] is greater than 100 µM; in assay [2], greater than 90.9 µM; in assay [3], 17.5 µM; in [5], greater than 100 µM; in assay [6], greater than 100 µM; in assay [7] it was greater than 100 µM. Besides, the TGI in assay [8] is greater than 100 µM; in assay [9], 14.3 µM; in assay [10], greater than 45.4 µM; in [11], greater than 100 µM; in assay [12], 3.67 µM; in assay [13] it was 29.9 µM. Also, the TGI was greater than 100 µM in assay [14]; greater than 100 µM in [15]; greater than 100 µM in assay [20]; 14.8 µM in assay [16]; greater than 77.8 µM in [17]; 2.96 µM in assay [18]. This compound showed a TGI in assay [19] of 12 µM.
On to `CCCCCCCCCCCCCCCCCCNC(=S)/N=C/c1c(O)cc(C)oc1=O`, for which the TGI was 69.5 µM in assay [1]; 40.6 µM in [2]; 64.1 µM in [3]; greater than 100 µM in assay [5]; 57.9 µM in assay [6]; 62 µM in assay [7]. For the same compound, the TGI in [8] was 36.3 µM; in assay [9], 41.9 µM; in [10] it was greater than 100 µM; in [11], greater than 100 µM; in assay [12], 47.8 µM; in assay [13], greater than 100 µM. Also, the TGI was greater than 100 µM in assay [14]; 37.3 µM in [15]; 64.7 µM in assay [16]; 52.1 µM in assay [17]; greater than 100 µM in assay [18]; 39.4 µM in assay [19].
With `CCOC(=O)C1CCCC1S(=O)(=O)c1ccc(C)cc1` (stereo not drawn), the TGI in [1], in [2], in assay [3], in assay [4], in assay [5] and in assay [6] was greater than 100 µM each time. For the same compound, the TGI in assay [7], in [8], in assay [9], in assay [10], in assay [11] and in assay [12] was greater than 100 µM each time. Further, the TGI in assay [13], in [14], in [15], in assay [20], in assay [16] and in assay [18] was greater than 100 µM each time. In assay [19], the TGI was greater than 100 µM.
For `C[N+](C)(N)Cc1csc(-c2ccc(Cl)cc2)n1`, the TGI in assay [1], in assay [2], in assay [3], in assay [5], in assay [6] and in assay [7] was greater than 100 µM each time. Further, the TGI in assay [8], in assay [9], in assay [10], in assay [11], in assay [12] and in assay [13] was greater than 100 µM each time. Besides, the TGI in assay [14], in [15], in [20], in [16], in assay [17] and in [18] was greater than 100 µM each time. Also, in [19], the TGI was greater than 100 µM.
In the case of `O=C1CSC(c2c(O)ccc3ccccc23)N1n1c(=S)[nH]nc(/C=C/c2c(O)ccc3ccccc23)c1=O` (stereo not drawn), the TGI in [1] is 21.8 µM; in [2], 23.5 µM; in assay [3] it was 11.4 µM; in assay [4] it was 3.04 µM; in assay [6] it was 51.3 µM; in assay [7], 23.2 µM. Besides, the TGI is 3.32 µM in assay [9]; 18.9 µM in assay [10]; 20.7 µM in [11]; 23 µM in [12]; 11.5 µM in assay [13]; 17.7 µM in assay [14]. For the same compound, the TGI is 38.1 µM in [15]; 17.4 µM in assay [20]; 37.2 µM in assay [16]; 15.1 µM in [17]; 15.1 µM in assay [19].
On to `CC(Nc1cc(=O)n(C)c(=O)[nH]1)c1ccccc1` (stereo not drawn), for which the TGI in [1], in assay [2], in assay [3], in [4], in assay [5] and in assay [6] was greater than 100 µM each time. Besides, the TGI in [7], in assay [8], in [9], in [10], in assay [11] and in assay [12] was greater than 100 µM each time. In addition, the TGI in assay [13], in assay [14], in assay [15], in assay [16], in assay [17] and in [18] was greater than 100 µM throughout. The compound also registered a TGI in assay [19] greater than 100 µM.
With `O=C(O)c1ccc(/C=N\N(CCO)C2=NCCN2)cc1`, the TGI in assay [1], in assay [2], in [4], in assay [5], in assay [6] and in [7] was greater than 100 µM each time. Also, the TGI in assay [8], in [9], in [10], in [11], in assay [12] and in [13] was greater than 100 µM each time. For the same compound, the TGI in assay [14], in [15], in assay [20], in assay [16], in [17] and in assay [18] was greater than 100 µM each time. The TGI in assay [19] is greater than 100 µM.
